Reference: the supplement of paper PMC11451515

Assays:
Experiment in all cases: AUC of viability dose-response curve (% viability x log10 dose units); higher = less sensitive
Conditions in all cases: 48 h
[1] = test system: NOMO1
Method in brief: (§1)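 Leukemia cells adapted to each medium were seeded in 1536-well plates (500 or 1000 cells/well). They were dosed with library compounds in DMSO at 11 threefold doses, 47 μM to 0.79 nM, for 48 h at 37°C. CellTiter-Glo One luminescence was normalised per plate to DMSO and cell-free wells. Area under the curve was integrated by trapezoidal rule over log10 doses on a four-parameter log-logistic fit; curves exceeding full viability were scaled and curves failing quality control removed.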

[2] = test system: P12-Ichikawa
Method in brief: as §1

[3] = test system: SEM cells
Method in brief: as §1

[4] = RPMI 5 mM glucose + 10% dialyzed FBS

Row | Structure (SMILES) | AUC of viability dose-response curve ([1]; HPLM + 10% dialyzed FBS) | AUC of viability dose-response curve ([1]; RPMI 5 mM glucose + 10% FBS) | AUC of viability dose-response curve [1, 4] | AUC of viability dose-response curve ([2]; HPLM + 10% dialyzed FBS) | AUC of viability dose-response curve ([2]; RPMI 5 mM glucose + 10% FBS) | AUC of viability dose-response curve [2, 4] | AUC of viability dose-response curve ([3]; HPLM + 10% dialyzed FBS) | AUC of viability dose-response curve ([3]; RPMI 5 mM glucose + 10% FBS) | AUC of viability dose-response curve [3, 4]
1 | C1CCN2C[C@H]3C[C@H](\C=C/4CCCN[C@@H]34)[C@H]2C1 | 462 | 447 | 452 | 456 | 457 | 457 | 465 | 449 | 457
2 | Nc1ncnc2c1nc(Cl)n2[C@@H]1O[C@H](CO)[C@@H](O)[C@H]1O |  |  |  | 454 | 463 | 452 | 412 | 419 | 406
3 | Nc1nc(Cl)nc2c1ncn2[C@@H]1O[C@H](CO)[C@@H](O)[C@@H]1F |  |  |  | 83.1 | 75.7 | 115 | 68 | 55.4 | 55.4
4 | C#CCN[C@@H]1CCc2ccccc21.CS(=O)(=O)O | 436 | 426 | 459 | 463 | 448 | 434 | 445 | 441 | 438
5 | CC(C)(O)/C=C\C(=O)[C@](C)(O)[C@H]1[C@H](O)C[C@]2(C)[C@@H]3CC=C4[C@@H](C=C(O)C(=O)C4(C)C)[C@]3(C)C(=O)C[C@@]12C | 272 | 273 | 268 | 269 | 251 | 259 | 234 | 209 | 221
6 | CO/N=C(/C(=O)N[C@@H]1C(=O)N2C(C(=O)O)=C(CSC(=O)c3ccco3)CS[C@H]12)c1csc(N)n1 | 413 | 453 | 449 | 472 | 464 | 476 |  |  | 
7 | COC1=CC=C(C=C1O)C/2=C/C(=O)C3=C(O2)C=C(O[C@@H]4O[C@H](CO[C@@H]5O[C@@H](C)[C@H](O)[C@@H](O)[C@H]5O)[C@@H](O)[C@H](O)[C@H]4O)C=C3O | 456 | 460 | 477 | 461 | 463 | 470 | 461 | 453 | 466
8 | O=c1[nH]c(=O)n(C2CCCO2)cc1F (stereo not drawn) | 468 | 455 | 447 | 466 | 467 | 470 | 448 | 467 | 469
9 | CN(C)CCN1C(=O)c2cccc3cc(N)cc(c23)C1=O | 424 | 427 | 435 | 437 | 418 | 431 |  |  | 
10 | CN1CCN(CCCN2c3ccccc3Sc3ccc(C(F)(F)F)cc32)CC1 | 379 | 357 | 384 | 426 | 423 | 456 | 447 | 451 | 463
